From BindingDB's records for doi:10.7270/Q28051GP (Universiti Teknologi Mara, 2017) come the findings set out here.

Structures are written as SMILES. pIC50: −log10 of the molar value.

For this test, the target named is T1, Beta-glucuronidase (Homo sapiens, UniProt P08236).
T1 sequence (P08236 whole entry): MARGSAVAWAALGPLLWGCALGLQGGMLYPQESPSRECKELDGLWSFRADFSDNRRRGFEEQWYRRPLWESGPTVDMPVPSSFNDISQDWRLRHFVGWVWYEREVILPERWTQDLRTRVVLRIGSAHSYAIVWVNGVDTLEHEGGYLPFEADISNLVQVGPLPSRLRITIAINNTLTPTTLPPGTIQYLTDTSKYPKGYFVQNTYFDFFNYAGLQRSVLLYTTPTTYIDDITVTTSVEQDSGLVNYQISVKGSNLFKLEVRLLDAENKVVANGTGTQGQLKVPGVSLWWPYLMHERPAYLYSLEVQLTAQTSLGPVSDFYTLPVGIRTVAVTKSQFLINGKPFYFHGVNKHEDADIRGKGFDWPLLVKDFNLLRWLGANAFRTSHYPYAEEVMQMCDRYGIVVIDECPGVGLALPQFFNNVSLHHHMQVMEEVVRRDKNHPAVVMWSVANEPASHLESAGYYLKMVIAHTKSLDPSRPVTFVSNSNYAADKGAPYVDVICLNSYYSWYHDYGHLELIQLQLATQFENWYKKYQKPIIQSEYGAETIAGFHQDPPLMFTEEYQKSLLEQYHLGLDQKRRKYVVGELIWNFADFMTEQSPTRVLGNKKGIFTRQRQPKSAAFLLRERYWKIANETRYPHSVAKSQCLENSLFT
Put plainly: β-Glucuronidase Assay.

Protocol: β-glucuronidase activity was determined in accordance to method used by Taha et al. [Taha et al., Bioorg. […] 250 μL was the volume of total reaction. Reaction mixture containing 5 μL of test compound solution, 185 μL of 0.1 M acetate buffer and 10 μL of enzyme solution were incubated for 30 min at 37 °C. […] To avoid precipitation, compound concentration was decreased and the volume of reaction was increased (200 μL). Precipitation probability was less thus addition of detergents was not needed.

The term pIC50 denotes −log10 of the IC50, conventionally taken in molar units. Compound `O=C(N/N=C/c1cccc(O)c1O)c1cc2cc(Cl)ccc2[nH]1` [(E)-5-chloro-N'-(2,3-dihydroxybenzylidene)-1H-indole-2-carbohydrazide (19)] gave a pIC50 of 4.87.

Compound `O=C(N/N=C/c1cc(O)ccc1O)c1cc2cc(Cl)ccc2[nH]1` [(E)-5-chloro-N'-(2,5-dihydroxybenzylidene)-1H-indole-2-carbohydrazide (23)] gave a pIC50 of 5.12. Compared with the last compound, the pIC50 is 0.25 log units higher.

Regarding `COc1ccc(/C=N/NC(=O)c2cc3cc(Cl)ccc3[nH]2)c(O)c1` [(E)-5-chloro-N'-(2-hydroxy-4-methoxybenzylidene)-1H-indole-2-carbohydrazide (16)], the pIC50 was 4.67.

`COc1ccc(O)c(/C=N/NC(=O)c2cc3cc(Cl)ccc3[nH]2)c1` [(E)-5-chloro-N'-(2-hydroxy-5-methoxybenzylidene)-1H-indole-2-carbohydrazide (6)] had a pIC50 of 4.61.

`O=C(N/N=C/c1ccccc1O)c1cc2cc(Cl)ccc2[nH]1` [(E)-5-chloro-N'-(2-hydroxybenzylidene)-1H-indole-2-carbohydrazide (26)] gave a pIC50 of 4.60.

Regarding `O=C(N/N=C/c1ccc(O)c(O)c1)c1cc2cc(Cl)ccc2[nH]1` [(E)-5-chloro-N'-(3,4-dihydroxybenzylidene)-1H-indole-2-carbohydrazide (24)], the pIC50 is 4.84.

Regarding `COc1ccc(/C=N/NC(=O)c2cc3cc(Cl)ccc3[nH]2)cc1O` [(E)-5-chloro-N'-(3-hydroxy-4-methoxybenzylidene)-1H-indole-2-carbohydrazide (5)], the pIC50 is 4.65.

As to `COc1ccc(/C=N/NC(=O)c2cc3cc(Cl)ccc3[nH]2)cc1` [(E)-5-chloro-N'-(4-methoxybenzylidene)-1H-indole-2-carbohydrazide (13)], the pIC50 was 4.27.

Take `Cc1ccc(/C=N/NC(=O)c2cc3cc(Cl)ccc3[nH]2)cc1` [(E)-5-chloro-N'-(4-methylbenzylidene)-1H-indole-2-carbohydrazide (1)]: the pIC50 is 4.36.

Consider `O=C(N/N=C/c1ccccn1)c1cc2cc(Cl)ccc2[nH]1` [(E)-5-chloro-N'-(pyridin-2-ylmethylene)-1H-indole-2-carbohydrazide (17)], for which the negative logarithm of the IC50 (pIC50) was 4.64.

As for `O=C(N/N=C/c1cccnc1)c1cc2cc(Cl)ccc2[nH]1` [(E)-5-chloro-N'-(pyridin-3-ylmethylene)-1H-indole-2-carbohydrazide (18)], the pIC50 is 4.35.

For `O=C(N/N=C/c1ccncc1)c1cc2cc(Cl)ccc2[nH]1` [(E)-5-chloro-N'-(pyridin-4-ylmethylene)-1H-indole-2-carbohydrazide (27)], the pIC50 is 4.37.

Regarding `O=C(N/N=C/c1ccc(F)c(Br)c1)c1cc2cc(Cl)ccc2[nH]1` [(E)-N'-(3-bromo-4-fluorobenzylidene)-5-chloro-1H-indole-2-carbohydrazide (33)], the pIC50 is 4.84.

`O=C(N/N=C/c1ccc(Cl)cc1)c1cc2cc(Cl)ccc2[nH]1` [(E)-N'-(4-chlorobenzylidene)-5-chloro-1H-indole-2-carbohydrazide (34)] gave a pIC50 of 4.43.

For `COC(=O)c1ccc(/C=N/NC(=O)c2cc3cc(Cl)ccc3[nH]2)cc1` [Methyl (E)-4-((2-(5-chloro-1H-indole-2-carbonyl)hydrazono)methyl)benzoate (15)], the pIC50 was 4.65.
